Active and inactive are the calls of the source. The rule behind the calls is not given here.
What was measured:
Plasmodium berghei [1] = assay: Antimalarial activity against Plasmodium berghei GFP ANKA infected in NMRI mice (Mus musculus) assessed as survival at 10 mg/kg, perorally administered through 7% Tween80/3% Ethanol formulation 24 hrs post infection for 3 days measured 96 hrs post infection; assay type: functional; conditions: route oral
Plasmodium berghei [2] = assay: Antimalarial activity against Plasmodium berghei GFP ANKA infected in NMRI mice (Mus musculus) assessed as reduction in parasitaemia at 30 mg/kg, perorally administered as single dose 24 hrs post infection for 1 day measured 72 hrs post infection; assay type: functional; parameters: scale not given: the % may be the effect or the level left; conditions: route oral
Plasmodium berghei [3] = assay: Antimalarial activity against Plasmodium berghei GFP ANKA infected in NMRI mice (Mus musculus) assessed as survival at 30 mg/kg, perorally administered as single dose 24 hrs post infection for 1 day measured 72 hrs post infection; assay type: functional; conditions: route oral
Plasmodium berghei [4] = assay: Antimalarial activity against Plasmodium berghei GFP ANKA infected in NMRI mice (Mus musculus) assessed as survival at 100 mg/kg, perorally administered as single dose 24 hrs post infection for 1 day measured 72 hrs post infection; assay type: functional; conditions: route oral
Plasmodium berghei [5] = assay: Antimalarial activity against Plasmodium berghei GFP ANKA infected in NMRI mice (Mus musculus) assessed as reduction in parasitaemia at 10 mg/kg, perorally administered through 7% Tween80/3% Ethanol formulation 24 hrs post infection for 3 days measured 96 hrs post infection; assay type: functional; parameters: scale not given: the % may be the effect or the level left; conditions: route oral
Plasmodium berghei [6] = assay: Antimalarial activity against Plasmodium berghei GFP ANKA infected in NMRI mice (Mus musculus) assessed as survival at 10 mg/kg, perorally administered as single dose as single dose 24 hrs post infection for 1 day measured 72 hrs post infection; assay type: functional; conditions: route oral
Plasmodium falciparum [7] = assay: Antimalarial activity against Plasmodium falciparum 3D7 assessed as parasite growth inhibition at 8 nM after 6 hrs by [3H]hypoxanthin incorporation assay; assay type: functional
Plasmodium berghei [8] = assay: Antimalarial activity against Plasmodium berghei GFP ANKA infected in NMRI mice (Mus musculus) assessed as reduction in parasitaemia at 10 mg/kg, perorally administered as single dose 24 hrs post infection for 1 day measured 72 hrs post infection; assay type: functional; parameters: scale not given: the % may be the effect or the level left; conditions: route oral
Plasmodium falciparum [9] = assay: Antimalarial activity against Plasmodium falciparum assessed as […] by SYBR green based fluorescence assay; assay type: functional, organism-based; conditions: for IC50: Plasmodium falciparum
Plasmodium falciparum [10] = assay type: functional, organism-based; conditions: Dd2, 72 h
Plasmodium falciparum [11] = assay: Inhibition of protein synthesis in NITD609-resistant Plasmodium falciparum Dd2 Clone1 within 1 hrs by [35S]Met/Cys incorporation assay; assay type: functional
Plasmodium falciparum [12] = assay: Antimalarial activity against Plasmodium falciparum Dd2 after 72 hrs by SYBR green based fluorescence assay; assay type: functional, organism-based; conditions: Dd2, 72 h
Plasmodium falciparum [13] = assay: Antimalarial activity against NITD609-resistant Plasmodium falciparum Dd2 Clone2 bearing P-type ATPase4 T418N and P990R mutations after 72 hrs by SYBR green based fluorescence assay; assay type: functional, organism-based; conditions: Dd2, 72 h
Plasmodium falciparum [14] = assay: Antimalarial activity against NITD609-resistant Plasmodium falciparum Dd2 Clone1 bearing P-type ATPase4 I398F and P990R mutations after 72 hrs by SYBR green based fluorescence assay; assay type: functional, organism-based; conditions: Dd2, 72 h
Plasmodium falciparum [15] = assay: Inhibition of protein synthesis in NITD609-resistant Plasmodium falciparum Dd2 Clone3 within 1 hrs by [35S]Met/Cys incorporation assay; assay type: functional
Plasmodium falciparum [16] = assay: microbe, parasite or virus in culture; conditions: Dd2, 72 h
Description: Antimalarial activity against Plasmodium falciparum Dd2 containing attB site inserted in parasite genome and using EF1-alpha promoter driven expressing ATP4 D1247Y mutant after 72 hrs by SYBR green based fluorescence assay

Plasmodium falciparum [17] = assay: microbe, parasite or virus in culture; conditions: Dd2, 72 h; remark: listed apart in the source
Description: Antimalarial activity against Plasmodium falciparum Dd2 containing attB site inserted in parasite genome and expressing parental ATP4 after 72 hrs by SYBR green based fluorescence assay

Plasmodium falciparum [18] = assay: microbe, parasite or virus in culture; conditions: Dd2, 72 h; remark: listed apart in the source
Description: Antimalarial activity against Plasmodium falciparum Dd2 containing attB site inserted in parasite genome and using CAM promoter driven expressing ATP4 I398F/P990R mutant after 72 hrs by SYBR green based fluorescence assay

Plasmodium falciparum [19] = assay: microbe, parasite or virus in culture; conditions: Dd2, 72 h; remark: listed apart in the source
Description: Antimalarial activity against Plasmodium falciparum Dd2 containing attB site inserted in parasite genome and using EF1-alpha promoter driven expressing ATP4 I398F/P990R mutant after 72 hrs by SYBR green based fluorescence assay

Plasmodium falciparum [20] = assay: microbe, parasite or virus in culture; conditions: Dd2, 72 h; remark: listed apart in the source
Description: Antimalarial activity against Plasmodium falciparum Dd2 containing attB site inserted in parasite genome and using EF1-alpha promoter driven expressing wild type ATP4 after 72 hrs by SYBR green based fluorescence assay

Plasmodium falciparum [21] = assay: microbe, parasite or virus in culture; conditions: Dd2, 72 h; remark: listed apart in the source
Description: Antimalarial activity against Plasmodium falciparum Dd2 containing attB site inserted in parasite genome and using CAM promoter driven expressing ATP4 D1247Y mutant after 72 hrs by SYBR green based fluorescence assay

Plasmodium berghei [22] = assay: Antimalarial activity against Plasmodium berghei GFP ANKA infected in NMRI mice (Mus musculus) assessed as reduction in parasitaemia dosed in 7% Tween80/3% ethanol formulation 1 day post infection measured 72 hrs post infection; assay type: functional
Plasmodium berghei [23] = assay: Antimalarial activity against Plasmodium berghei GFP ANKA infected in NMRI mice (Mus musculus) assessed as reduction in parasitaemia dosed in ETPGS formulation 1 day post infection measured 72 hrs post infection; assay type: functional
Plasmodium berghei [24] = assay: Antimalarial activity against Plasmodium berghei GFP ANKA infected in NMRI mice (Mus musculus) assessed as reduction in parasitaemia at 30 mg/kg, perorally administered through 7% Tween80/3% Ethanol formulation 24 hrs post infection for 3 days measured 96 hrs post infection; assay type: functional; parameters: scale not given: the % may be the effect or the level left; conditions: route oral
Plasmodium berghei [25] = assay: Antimalarial activity against Plasmodium berghei GFP ANKA infected in NMRI mice (Mus musculus) assessed as survival at 30 mg/kg, perorally administered through 7% Tween80/3% Ethanol formulation 24 hrs post infection for 3 days measured 96 hrs post infection; assay type: functional; conditions: route oral
Plasmodium berghei [26] = assay: Antimalarial activity against Plasmodium berghei GFP ANKA infected in NMRI mice (Mus musculus) assessed as reduction in parasitaemia at 100 mg/kg, perorally administered as single dose 24 hrs post infection for 1 day measured 72 hrs post infection; assay type: functional; parameters: scale not given: the % may be the effect or the level left; conditions: route oral

CO[C@H]1O[C@@H]2O[C@@]3(C)CC[C@H]4[C@H](C)CC[C@@H]([C@H]1C)[C@@]24OO3
Survival (Plasmodium berghei [1]): 13.2 days
Activity (Plasmodium berghei [2]): 97%
Survival (Plasmodium berghei [3]): 6.9 days
Survival (Plasmodium berghei [4]): >7.6 days
Activity (Plasmodium berghei [5]): 99.7%
mean survival time at 10 mg/kg (Plasmodium berghei [6]): 6.2 days
inhibition at 0.008 µM (Plasmodium falciparum [7]): > 90%
Activity (Plasmodium berghei [8]): 81%

COc1ccc(C[C@H]2NC[C@H](O)[C@H]2OC(C)=O)cc1 [ANISOMYCIN]
IC50 (Plasmodium falciparum [9]): 25 nM
IC50 (Plasmodium falciparum [10]; read-out: IC50): 6.4 nM
inhibition (Plasmodium falciparum [11]): Active
IC50 (Plasmodium falciparum [12]): 9.1 nM
IC50 (Plasmodium falciparum [13]): 9.2 nM
IC50 (Plasmodium falciparum [14]): 5.8 nM
inhibition (Plasmodium falciparum [15]): Active

C[C@@H]1CC[C@H]2[C@@H](C)C(=O)O[C@@H]3O[C@@]4(C)CC[C@@H]1[C@]32OO4 [ARTEMISININ]
inhibition (INH) (Plasmodium falciparum [9]): <25%
IC50 (Plasmodium falciparum [9]): 15 nM
IC50 (Plasmodium falciparum [10]; read-out: IC50): 16 nM
IC50 (Plasmodium falciparum [16]): 19.8 nM
IC50 (Plasmodium falciparum [17]): 15.4 nM
IC50 (Plasmodium falciparum [18]): 18 nM
IC50 (Plasmodium falciparum [19]): 17.3 nM
IC50 (Plasmodium falciparum [13]): 18 nM
IC50 (Plasmodium falciparum [20]): 17.2 nM
IC50 (Plasmodium falciparum [14]): 13 nM
IC50 (Plasmodium falciparum [21]): 16.2 nM

C[C@H]1[C@H](OC(=O)CCC(=O)O)O[C@@H]2O[C@@]3(C)CC[C@H]4[C@H](C)CC[C@@H]1[C@@]24OO3 [ARTESUNATE]
ED99 (Plasmodium berghei [22]): 135 mg/kg
Survival (Plasmodium berghei [1]): 6.5 days
Activity (Plasmodium berghei [2]): 89%
Survival (Plasmodium berghei [4]): 6.7 days
ED50 (Plasmodium berghei [23]): 6.2 mg/kg
Activity (Plasmodium berghei [24]): 98%
Survival (Plasmodium berghei [25]): 7.2 days
Activity (Plasmodium berghei [5]): 92%
mean survival time at 10 mg/kg (Plasmodium berghei [6]): 7.3 days
Activity (Plasmodium berghei [8]): 70%

O=C1C(O)=C([C@H]2CC[C@H](c3ccc(Cl)cc3)CC2)C(=O)c2ccccc21 [ATOVAQUONE]
IC50 (Plasmodium falciparum [10]; read-out: IC50): 0.6 nM
IC50 (Plasmodium falciparum [12]): 0.8 nM
IC50 (Plasmodium falciparum [13]): 0.8 nM
IC50 (Plasmodium falciparum [14]): 0.6 nM

CCN(CC)CCCC(C)Nc1ccnc2cc(Cl)ccc12 (configuration not stated) [CHLOROQUINE]
ED99 (Plasmodium berghei [22]): 8.4 mg/kg
Survival (Plasmodium berghei [1]): 15.4 days
Survival (Plasmodium berghei [3]): 8.7 days
Survival (Plasmodium berghei [4]): 12 days
ED50 (Plasmodium berghei [23]): 1.9 mg/kg
Activity (Plasmodium berghei [24]): 98.6%
Activity (Plasmodium berghei [26]): >99.9%
Survival (Plasmodium berghei [25]): 18.8 days
mean survival time at 10 mg/kg (Plasmodium berghei [6]): 8 days

C/C=C/[C@H]1O[C@@](O)([C@@H](C)[C@H](O)[C@H](C)[C@H]2OC(=O)/C(OC)=C/C(C)=C/[C@@H](C)[C@@H](O)[C@@H](CC)[C@@H](O)[C@H](C)C/C(C)=C/C=C/[C@@H]2OC)C[C@@H](O[C@H]2C[C@@H](O)[C@H](OC(N)=O)[C@@H](C)O2)[C@@H]1C [CONCANAMYCIN A]
IC50 (Plasmodium falciparum [10]; read-out: IC50): 7 nM
IC50 (Plasmodium falciparum [12]): 4.5 nM
IC50 (Plasmodium falciparum [13]): 8 nM
IC50 (Plasmodium falciparum [14]): 7 nM

C[C@@H]1C[C@@H]([C@H](O)CC2CC(=O)NC(=O)C2)C(=O)[C@@H](C)C1 [CYCLOHEXIMIDE]
IC50 (Plasmodium falciparum [9]): 200 nM
IC50 (Plasmodium falciparum [10]): 301 nM
inhibition (Plasmodium falciparum [11]): Active
IC50 (Plasmodium falciparum [12]): 320 nM
IC50 (Plasmodium falciparum [13]): 310 nM
IC50 (Plasmodium falciparum [14]): 287 nM
inhibition (Plasmodium falciparum [15]): Active

CC(=O)C1=C(O)[C@@H]2[C@H]3c4c[nH]c5cccc(c45)C[C@H]3C(C)(C)N2C1=O [CYCLOPIAZONIC ACID]
IC50 (Plasmodium falciparum [10]; read-out: IC50): 3240 nM
IC50 (Plasmodium falciparum [12]): 3420 nM
IC50 (Plasmodium falciparum [13]): 4160 nM
IC50 (Plasmodium falciparum [14]): 3460 nM

OC(c1cc(C(F)(F)F)nc2c(C(F)(F)F)cccc12)C1CCCCN1 (configuration not stated) [MEFLOQUINE]
inhibition (INH) (Plasmodium falciparum [9]): <25%
IC50 (Plasmodium falciparum [10]; read-out: IC50): 8 nM
ED99 (Plasmodium berghei [22]): 8.6 mg/kg
Survival (Plasmodium berghei [1]): 13.8 days
Activity (Plasmodium berghei [2]): 98%
Survival (Plasmodium berghei [3]): 18.2 days
Survival (Plasmodium berghei [4]): 28 days
ED50 (Plasmodium berghei [23]): 4.2 mg/kg
IC50 (Plasmodium falciparum [16]): 12.5 nM
Activity (Plasmodium berghei [24]): 99.9%
IC50 (Plasmodium falciparum [18]): 12.9 nM
IC50 (Plasmodium falciparum [19]): 14.1 nM
IC50 (Plasmodium falciparum [13]): 7 nM
Activity (Plasmodium berghei [26]): 89%
IC50 (Plasmodium falciparum [14]): 6.7 nM
Survival (Plasmodium berghei [25]): 14 days
IC50 (Plasmodium falciparum [21]): 11 nM
Activity (Plasmodium berghei [5]): 99.9%
mean survival time at 10 mg/kg (Plasmodium berghei [6]): 15.2 days
Activity (Plasmodium berghei [8]): 95%

CCc1nc(N)nc(N)c1-c1ccc(Cl)cc1 [PYRIMETHAMINE]
IC50 (Plasmodium falciparum [10]; read-out: IC50): > 20000 nM
IC50 (Plasmodium falciparum [12]): > 20000 nM
IC50 (Plasmodium falciparum [13]): > 20000 nM
IC50 (Plasmodium falciparum [14]): > 20000 nM

C/C=C(/C)C(=O)O[C@H]1C(C)=C2[C@H]([C@@H]1OC(=O)CCCCCCC)[C@@](C)(OC(C)=O)C[C@H](OC(=O)CCC)[C@@]1(O)[C@H]2OC(=O)[C@@]1(C)O [THAPSIGARGIN]
IC50 (Plasmodium falciparum [10]; read-out: IC50): 1050 nM
IC50 (Plasmodium falciparum [12]): 905 nM
IC50 (Plasmodium falciparum [13]): 1110 nM
IC50 (Plasmodium falciparum [14]): 813 nM
